The nature of this series: log P by HPLC on reversed-phase column (C 18), EEC Directive 79/831 Annex V.A8. The format is physicochemical. The conditions noted are these: 55° C.; for chromatographic logP: reversed-phase HPLC column (C 18); for LOGP_HCOOH: log P (HCOOH). As for the experimental part:
Temperature: 55° C. […] Called log P (HCOOH) in the table. […] Called log P (neutral) in the table.

Where [1] appears, read: pH 2.7, LC-MS acidic range, pH 2.7, 0.1% formic acid/acetonitrile, read-out: log P (acidic) / log P (HCOOH).
The mark [2] stands for this setting: pH 7.8, LC-MS neutral range, pH 7.8, ammonium hydrogencarbonate/acetonitrile, read-out: log P (neutral).
The mark [3] stands for this setting: acidic range pH 2.7, 0.1% aqueous formic acid and acetonitrile, reversed-phase column (C 18).
[4] abbreviates: log P, neutral range, HPLC on reversed-phase column (C 18).
The mark [5] stands for this setting: acidic range at pH 2.7, 0.1% aqueous formic acid and acetonitrile, HPLC on reversed-phase column (C 18).

Like-named read-outs stand apart in the source and are kept apart here.

As to `N#Cc1ccc(CNC(=O)c2cc(B(O)O)cc(NC(=O)C3CC3)n2)cc1` [Example X-1b, {2-[(4-Cyanobenzyl)carbamoyl]-6-[(cyclopropylcarbonyl)amino]pyridin-4-yl}boric acid], the chromatographic logP reads like this: under setting [1], 1.58; under setting [2], 1.25.
Molecule `CC(C)C(=O)Nc1cc(-c2ccc(C(F)(F)F)cc2)cc(C(=O)NCc2cc(F)c(C#N)c(F)c2)n1` [Example I-072] gave an LOGP_HCOOH under setting [3] of 4.23. The molecule further registered an LOGP_NEUTRAL under setting [4] of 4.04.
Regarding `N#Cc1ccc(CNC(=O)c2cc(-c3ccc(OC(F)=C(F)F)cc3)cc(NC(=O)C3CC3)n2)cc1` [Example I-171], the LOGP_HCOOH under setting [5] was found to be 3.96. For the same molecule, the LOGP_NEUTRAL under setting [4] amounted to 3.82.
For `N#Cc1ccc(CNC(=O)c2cc(-c3ccc(OC(F)(F)F)cc3)cc(NC(=O)C3(C4CC4)CC3)n2)cc1` [Example I-203], the LOGP_NEUTRAL under setting [4] is recorded as 3.32.
Under setting [3], `N#Cc1ccc(CNC(=O)c2cc(-c3cc(F)c(C(F)(F)C(F)(F)F)c(Cl)c3)cc(NC(=O)C3CC3)n2)cc1` [Example I-278] came in with an LOGP_HCOOH of 4.67. The same molecule returned an LOGP_NEUTRAL (log P (neutral), HPLC reversed-phase column (C 18)) of 4.52.
In the case of `NC(=O)c1cc(-c2ccc(C(F)(F)C(F)(F)F)c(F)c2)cc(NC(=O)C2CC2)n1` [XXIII-1, 6-[(Cyclopropylcarbonyl)amino]-4-[3-fluoro-4-(pentafluoroethyl)phenyl]pyridine-2-carboxamide], the chromatographic logP by setting is: under setting [1], 3.18; under setting [2], 3.17.
`CN(C(=O)c1cc(-c2ccc(C(F)(F)F)cc2)cc(N)n1)C1CC1` [XX-2, 6-Amino-N-cyclopropyl-N-methyl-4-[4-(trifluoromethyl)phenyl]pyridine-2-carboxamide]: under setting [2], the chromatographic logP is 2.4.
Molecule `N#Cc1cccc(CNC(=O)c2cc(-c3ccc(F)cc3)cc(NC(=O)C3CC3)n2)c1` [Example I-001] showed an LOGP_HCOOH under setting [3] of 3.26.
Take `O=C(NC1CCCCC1)c1cc(-c2ccc(OC(F)(F)F)cc2)cc(NC(=O)C2CC2)n1` [Example I-168]: the LOGP_HCOOH under setting [5] is recorded as 4.74. For the same molecule, under setting [4], the LOGP_NEUTRAL is listed as 4.57.
Under setting [3], `N#Cc1ccc(CNC(=O)c2cc(-c3ccc(C(F)(F)C(F)(F)F)c(F)c3Cl)cc(NC(=O)C3CC3)n2)cc1` [Example I-266] yielded an LOGP_HCOOH of 4.34.
Take `FC(F)(F)Oc1ccc(-c2cc(Cl)nc(Cl)c2)cc1` [XIV-1, 2,6-Dichloro-4-[4-(trifluoromethoxy)phenyl]pyridine]: the chromatographic logP runs as follows: under setting [1], 4.63; under setting [2], 4.62.
Taken in the same sequence, the figures for `O=C(O)c1cc(-c2ccc(OC(F)(F)F)cc2)cc(NC(=O)C2CC2)n1` [6-[(Cyclopropylcarbonyl)amino]-4-[4-(trifluoromethoxy)phenyl]pyridine-2-carboxylic acid] were 2.72 and 1.25.
The corresponding values for `NNC(=O)c1cc(-c2ccc(OC(F)(F)F)cc2)cc(NC(=O)C2CC2)n1` [XXIV-1, N-{6-(Hydrazinocarbonyl)-4-[4-(trifluoromethoxy)phenyl]pyridin-2-yl}cyclopropanecarboxamide] are 2.57 and 2.55.
In turn, `Cc1cc(-c2cc(NC(=O)C3CC3)nc(C(=O)NCc3ccc(C#N)cc3)c2)cc(F)c1C(F)(F)C(F)(F)F` [Example I-267] returned an LOGP_HCOOH under setting [3] of 4.45.
`N#Cc1ccc(CNC(=O)c2cc(-c3ccc(Cl)cc3)cc(N)n2)cc1` [XX-1, 6-Amino-4-(4-chlorophenyl)-N-(4-cyanobenzyl)pyridine-2-carboxamide]: the chromatographic logP under setting [2] is 2.82.
`C=Cc1cc(-c2ccc(OC(F)(F)F)cc2)cc(Cl)n1` [XV-1, 2-Chloro-4-[4-(trifluoromethoxy)phenyl]-6-vinylpyridine]: the chromatographic logP runs as follows: under setting [1], 4.77; under setting [2], 4.72.
With `N#Cc1ccc(CNC(=O)c2cc(-c3ccc(C(F)(F)F)cc3)cc(N)n2)cc1F` [XX-3, 6-Amino-N-(4-cyano-3-fluorobenzyl)-4-[4-(trifluoromethyl)phenyl]pyridine-2-carboxamide], under setting [2], the chromatographic logP was determined as 3.19.
Regarding `O=C(Nc1cc(-c2ccc(C(F)(F)C(F)(F)F)c(F)c2)cc(Cl)n1)C1CC1` [XXII-1, N-{6-Chloro-4-[3-fluoro-4-(pentafluoroethyl)phenyl]pyridin-2-yl}cyclopropanecarboxamide], the chromatographic logP runs as follows: under setting [1], 4.76; under setting [2], 4.64.
The corresponding values for `O=C(O)c1cc(-c2ccc(OC(F)(F)F)cc2)cc(Cl)n1` [XVI-1, 6-Chloro-4-[4-(trifluoromethoxy)phenyl]pyridine-2-carboxylic acid] are 3 and 1.17.
Turning to `CNc1cc(-c2ccc(OC(F)(F)F)cc2)cc(C(=O)NCc2ccc(C#N)cc2)n1` [XVIII-1, N-(4-Cyanobenzyl)-6-(methylamino)-4-[4-(trifluoromethoxy)phenyl]pyridine-2-carboxamide], the chromatographic logP reads like this: under setting [1], 3.63; under setting [2], 3.63.
Take `N#Cc1cc(-c2ccc(OC(F)(F)F)cc2)cc(NC(=O)C2CC2)n1` [XXIX-1, N-{6-Cyano-4-[4-(trifluoromethoxy)phenyl]pyridin-2-yl}cyclopropanecarboxamide]: the chromatographic logP by setting is: under setting [1], 3.85; under setting [2], 3.89.
Regarding `N#Cc1ccc(CNC(=O)c2cc(-c3ccc(OC(F)(F)F)cc3)cc(Cl)n2)cc1` [XVII-1, 6-Chloro-N-(4-cyanobenzyl)-4-[4-(trifluoromethoxy)phenyl]pyridine-2-carboxamide], the chromatographic logP under setting [1] stood at 4.23 and the chromatographic logP under setting [2] was 4.19.
Molecule `N#CC1CCN(C(=O)c2cc(-c3ccc(OC(F)(F)F)cc3)cc(NC(=O)C3CC3)n2)CC1` [Example I-199] gave an LOGP_HCOOH under setting [5] of 3.21.
Under setting [3], `N#Cc1ccc(CNC(=O)c2cc(-c3cc(F)c(C(F)(F)C(F)(F)F)cc3F)cc(NC(=O)C3CC3)n2)cc1` [Example I-275] had an LOGP_HCOOH of 4.11.
Take `Nc1cc(-c2ccc(C(F)(F)C(F)(F)F)c(F)c2)cc(Cl)n1` [XXI-1, 6-Chloro-4-[3-fluoro-4-(pentafluoroethyl)phenyl]pyridin-2-amine]: the chromatographic logP worked out at 3.85 under setting [1] and 3.83 under setting [2].
The corresponding values for `COC(=O)c1cc(-c2ccc(OC(F)(F)F)cc2)cc(NC(=O)C2CC2)n1` [XXIII-2, Methyl 6-[(cyclopropylcarbonyl)amino]-4-[4-(trifluoromethoxy)phenyl]pyridine-2-carboxylate] are 3.63 and 3.54.
Under setting [5], `CON(C)C(=O)c1cc(-c2ccc(OC(F)(F)F)cc2)cc(NC(=O)C2CC2)n1` [Example I-183] registered an LOGP_HCOOH of 3.22. Also, the LOGP_NEUTRAL under setting [4] was determined as 3.18.
With `Fc1cc(-c2cc(Cl)nc(Cl)c2)ccc1C(F)(F)C(F)(F)F` [XIV-2, 2,6-Dichloro-4-[3-fluoro-4-(pentafluoroethyl)phenyl]pyridine], the chromatographic logP was found to be 4.92 under setting [1] and 4.97 under setting [2].
Turning to `Nc1cc(-c2ccc(Cl)cc2)cc(C(=O)O)n1` [XIX-1, 6-Amino-4-(4-chlorophenyl)pyridine-2-carboxylic acid], the chromatographic logP under setting [1] came out at 1.02.

Source of the values: patent US20190053492A1, “SUBSTITUTED PYRIDINE COMPOUNDS AS PESTICIDES” (Bayer CropScience Aktiengesellschaft, priority 2016, published 2019).
